Measured values: patent US4708872A, “Antitumor antibiotic complex” (Bristol-Meyers Company, priority 1985, dated 1987)
“And” between values parts separate entries of the source, which are not always exact repeats. Equal values may be shown once. Read-outs that look alike come from different tables or passages of the source.

Assays:
[1] = system: B16 melanoma; details: qd 1-9 ip; dose of preceding T/C line
Experimental: (§1) Lymphocytic leukemia P-388, lymphoid leukemia L-1210, melanotic melanoma B16 and Lewis lung carcinoma were implanted intraperitoneally into male BDF1 mice at an inoculum size of 10^6, 10^5, 5×10^5 and 10^6 cells per mouse, respectively. Graded doses of test compounds were administered to the mice intraperitoneally 24 hours after the tumor inoculation.
(§2) Death or survival of the treated and non-treated mice was recorded daily, and the median survival time (MST) was calculated for each of the test (T) and control (C) groups. […] Second experiments were carried out by intravenous administration of BBM-1675 components against P-388 and L-1210 leukemias, which were inoculated intravenously at 5×10^5 and 10^4 cells per mouse, respectively.

[2] = system: Lewis lung carcinoma
Experimental: as §1, §2

[3] = system: L-1210 leukemia; experiment: Intravenously implanted L-1210 leukemia, iv treatment; details: days 1,4,7 iv
[4] = system: L-1210 leukemia; details: days 1,4,7 iv; dose of preceding T/C line

SMILES | Survivors on day 5 [1] | Survivors on day 5 ([2]; mouse, in vivo, ip) | Survivors on day 5 ([2]; qd 1-11 ip, dose of preceding T/C line) | MST ([3]; 16 mg/kg/day) | Survivors on day 5 ([3]; 16 mg/kg/day) | Survivors on day 45 ([3]; 16 mg/kg/day) | MST ([3]; dose of preceding T/C line) | Survivors on day 5 ([3]; dose of preceding T/C line) | MST [4] [days]
CO[C@@H]1[C@H](O)C[C@@H](O[C@@H]2C[C@H](Oc3cc4cc5c(c(O)c4c(O)c3C)C(=O)[C@@H](O[C@H]3C[C@@H](O[C@H]4C[C@@H](O[C@H]6C[C@](C)(O)[C@@H](OC(C)=O)[C@H](C)O6)[C@H](O)[C@@H](C)O4)[C@H](O)[C@@H](C)O3)[C@H]([C@H](OC)C(=O)[C@@H](O)[C@@H](C)O)C5)O[C@H](C)[C@@H]2OC(C)=O)O[C@@H]1C [Chromomycin A3, chromomycin A3] | 6/6 | 5/5 | 6/6 | – | – | – | – | – | –
COc1cccc2c1C(=O)c1c(O)c3c(c(O)c1C2=O)C[C@@](O)(C(=O)CO)C[C@@H]3O[C@H]1C[C@H](N)[C@H](O)[C@H](C)O1 [Adriamycin, adriamycin] | – | – | – | tox. | 2/6 | 0/6 | 12.0 days and 8.0 days | 6/6 | 9.0
